These results are taken from ChEMBL document CHEMBL6134783, “Discovery of hybrid Glypromate conjugates with neuroprotective activity against paraquat-induced toxicity” (RSC Med Chem, 2024).

The test system of series [1] is SH-SY5Y. In words: Neuroprotective activity in amyloid beta (25 to 35)-induced non-differentiated human SH-SY5Y cells assessed as reduction in protein aggregation at 100 uM incubated for 24 hrs by ThT fluorescence assay relative to control. It is filed as functional. The arrangement: scale not given: the % may be the effect or the level left.
The nature of series [2]: Neurotoxicity against non-differentiated human SH-SY5Y cells assessed as reduction in cell viability at 100 uM measured after 24 hrs by MTT assay relative to control. It is filed as toxicity, cell-based.
Series [3] is described as follows: Neurotoxicity against retinoic acid/TPA differentiated human SH-SY5Y cells assessed as reduction in cell viability at 100 uM measured after 48 hrs by MTT assay relative to control. Type of series: toxicity, cell-based. (Tetrazolium dyes change colour on reduction, which living cells bring about.)
In series [4] the test system is SH-SY5Y. In words: Neuroprotective activity against 6-OHDA-induced cytotoxicity in differentiated human SH-SY5Y cells at 100 uM incubated for 48 hrs by MTT reduction assay relative to control. It is filed as functional.
Series [5] relates to SH-SY5Y. In words: Neuroprotective activity against 6-OHDA-induced cytotoxicity in differentiated human SH-SY5Y cells at 100 uM incubated for 48 hrs by NR uptake assay. It is filed as functional, cell-based.
Series [6] concerns SH-SY5Y. Put plainly: Neuroprotective activity against PQ-induced cytotoxicity in differentiated human SH-SY5Y cells at 100 uM incubated for 48 hrs by MTT reduction assay. It is filed as functional. More on the design: scale not given: the % may be the effect or the level left.
Series [7] concerns SH-SY5Y. Put plainly: Neuroprotective activity against PQ-induced cytotoxicity in differentiated human SH-SY5Y cells assessed as NR uptake at 100 uM incubated for 48 hrs by NR uptake assay (reference value: 36.78 +/- 9.57%). It is filed as functional.
Series [8] relates to SH-SY5Y. In words: Neuroprotective activity against PQ-induced cytotoxicity in differentiated human SH-SY5Y cells at 100 uM incubated for 48 hrs by NR uptake assay. It is filed as functional.
The subject of series [9] is SH-SY5Y. Put plainly: Neuroprotective activity against 6-OHDA-induced cytotoxicity in differentiated human SH-SY5Y cells assessed as NR uptake at 100 uM incubated for 48 hrs by NR uptake assay (reference value: 61.31 +/- 12.93%). It is filed as functional.
For series [10], the system named is SH-SY5Y. Put plainly: Neuroprotective activity against PQ-induced cytotoxicity in differentiated human SH-SY5Y cells assessed as viable cells at 100 uM incubated for 48 hrs by MTT reduction assay (reference value: 46.02 +/- 3.61%). It is filed as functional. Particulars: read-out: Activity.

Active and inactive are the calls of the source. The calls are words filed in the database; no cut-off is given here.

Consider `NC12CC3CC(CC(C3)C1)C2` [AMANTADINE], for which the Activity in the series on SH-SY5Y [1] is 17%.

Turning to `COC(=O)CC[C@H](NC(=O)[C@@H]1[C@H]2CC[C@H](C2)N1C(=O)CN)C(=O)N[C@@H]1CCc2ccccc21.O=C(O)C(F)(F)F`, the values for the Activity (in series [2]; in the series with SH-SY5Y [6]; in the series with SH-SY5Y [7]) were 96.04%, 4% and 40.76%, respectively. In addition, the outcome with SH-SY5Y [1], in the series on SH-SY5Y [4] and in the series with SH-SY5Y [5] was inactive. In addition, the “Cell viability (% of control)” value in series [3] was determined as 98.48%.

Regarding `COC(=O)[C@H](CCC(=O)N[C@@H]1CCc2ccccc21)NC(=O)[C@@H]1CCCN1C(=O)CN`, in the series on SH-SY5Y [1], the result was Active.

In the case of `COC(=O)[C@H](CCC(=O)N[C@@H]1CCc2ccccc21)NC(=O)[C@@H]1[C@H]2CC[C@H](C2)N1C(=O)CN(C)C`, the Activity in series [2] is listed as 90.95%; in the series on SH-SY5Y [6] it was 12%; in the series on SH-SY5Y [8] it was “<=15%”. Besides, the result in the series with SH-SY5Y [1], in the series on SH-SY5Y [4] and in the series with SH-SY5Y [5] was inactive. In [3], the “Cell viability (% of control)” value worked out at 96.47%.

On to `COC(=O)CC[C@H](NC(=O)[C@@H]1CCCN1C(=O)CN)C(=O)N[C@@H]1CCc2ccccc21`, for which, in the series with SH-SY5Y [1], the result was Active.

With `NCC(=O)N1CCC[C@H]1C(=O)N[C@@H](CCC(=O)O)C(=O)O`, the Activity in the series on SH-SY5Y [1] turned out to be 12%; in the series with SH-SY5Y [4], 12%; in the series with SH-SY5Y [9], 25.32%; in the series with SH-SY5Y [7] it was 36.33%. The viability at 100 µM in the series with SH-SY5Y [10] was found to be 25.3%.

Regarding `COC(=O)[C@H](CCC(=O)N[C@@H]1CCc2ccccc21)NC(=O)[C@@H]1[C@H]2CC[C@H](C2)N1C(=O)CNC(=O)OC(C)(C)C`, in [2], the Activity is 32.77%. Also, in series [3], the “Cell viability (% of control)” value was determined as 94.07%. Besides, the outcome in the series with SH-SY5Y [4] and in the series with SH-SY5Y [5] was inactive.

As for `COC(=O)[C@H](CCC(=O)NC12CC3CC(CC(C3)C1)C2)NC(=O)[C@@H]1CCCN1C(=O)CN`, the result with SH-SY5Y [1] was inactive.

As to `COC(=O)CC[C@H](NC(=O)[C@@H]1[C@H]2CC[C@H](C2)N1C(=O)CN)C(=O)NC12CC3CC(CC(C3)C1)C2.O=C(O)C(F)(F)F`, the figures for the Activity (in series [2]; in the series on SH-SY5Y [1]; with SH-SY5Y [6]) were 93.91%, 20% and 5%, respectively. Further, the “Cell viability (% of control)” value in series [3] worked out at 102.46%. The result in the series on SH-SY5Y [4] and with SH-SY5Y [5] was inactive.

As to `COC(=O)[C@H](CCC(=O)NC12CC3CC(C)(CC(C)(C3)C1)C2)NC(=O)[C@@H]1[C@H]2CC[C@H](C2)N1C(=O)CN.O=C(O)C(F)(F)F`, the Activity in [2] is on record as 32.77%.

With `N[C@@H]1CCc2ccccc21`, the viability at 100 µM in the series with SH-SY5Y [10] is 23.6%. The Activity with SH-SY5Y [7] came out at 22.95%.

With `COC(=O)[C@H](CCC(=O)NC12CC3CC(CC(C3)C1)C2)NC(=O)[C@@H]1[C@H]2CC[C@H](C2)N1C(=O)CNC(=O)OC(C)(C)C`, the Activity in [2] was 89.94%.

Take `COC(=O)CC[C@H](NC(=O)[C@@H]1[C@H]2CC[C@H](C2)N1C(=O)CN(C)C)C(=O)NC12CC3CC(CC(C3)C1)C2`: the Activity in series [2] was 97.93%; with SH-SY5Y [1] it was 24%.

Take `COC(=O)[C@H](CCC(=O)NC12CC3CC(CC(C3)C1)C2)NC(=O)[C@@H]1[C@H]2CC[C@H](C2)N1C(=O)CN.O=C(O)C(F)(F)F`: the Activity in [2] was 89.15%; with SH-SY5Y [7] it was 40.94%. Further, the “Cell viability (% of control)” value in series [3] turned out to be 96.82%. For the same compound, the result in the series on SH-SY5Y [4] and in the series on SH-SY5Y [5] was inactive.

In the case of `COC(=O)[C@H](CCC(=O)NC12CC3CC(C)(CC(C)(C3)C1)C2)NC(=O)[C@@H]1[C@H]2CC[C@H](C2)N1C(=O)CN(C)C`, in series [2], the Activity is on record as 32.77%. Besides, the “Cell viability (% of control)” value in series [3] came to 9.07%.

As for `COC(=O)CC[C@H](NC(=O)[C@@H]1[C@H]2CC[C@H](C2)N1C(=O)CNC(=O)OC(C)(C)C)C(=O)NC12CC3CC(CC(C3)C1)C2`, the Activity in series [2] is 90.79%.

`COC(=O)CC[C@H](NC(=O)[C@@H]1[C@H]2CC[C@H](C2)N1C(=O)CNC(=O)OC(C)(C)C)C(=O)NC12CC3CC(C)(CC(C)(C3)C1)C2`: in [3], the “Cell viability (% of control)” value was 98.1%. Further, the outcome in the series on SH-SY5Y [4] and with SH-SY5Y [5] was inactive. The viability at 100 µM in the series with SH-SY5Y [10] turned out to be 38.8%.

With `COC(=O)CC[C@H](NC(=O)[C@@H]1[C@H]2CC[C@H](C2)N1C(=O)CN(C)C)C(=O)N[C@@H]1CCc2ccccc21`, the “Cell viability (% of control)” value in [3] came to 100.56%. Further, the outcome in the series with SH-SY5Y [4] and with SH-SY5Y [5] was inactive.

`COC(=O)CC[C@H](NC(=O)[C@@H]1[C@H]2CC[C@H](C2)N1C(=O)CNC(=O)OC(C)(C)C)C(=O)N[C@@H]1CCc2ccccc21`: the Activity in series [2] was 86.49%. Further, the result with SH-SY5Y [1] was inactive.
